Data: patent publication US9611314B2, “Functional peptide analogs of PEDF” (The Penn State Research Foundation, priority 2013, dated 2017)
Where no end group is shown, it is not given here.

What was measured:
[1] = Peptide bioavailability in primate eyes, vitreous humor by mass spectrometry; assay type: in vivo, primate (Vervets); details: 100 μg topical
Text: From the studies using the DR mouse model, two active, structurally diverse peptides 81-5 and 81-13 were selected to test their availability in the primate eye when given topically. There are substantial differences between the eyes of rodents, primates, and humans. The most obvious is size of the aqueous and vitreous fluid compartments. Fluid flow forward from the ciliary body in primates/humans is countercurrent to drug movement to the back of the eye and may influence drug concentrations in the vitreous. In this study, it was examined whether the selected compounds had access to the retina when given topically to primate eyes as they do in rodents. Peptide doses used were scaled up by 8-20 fold as an estimate to account for differences in eye volume between rodents and primates.
Adult males and females were equally distributed into 3 treatment groups (Table 3) and randomized by weight criteria. Animals were fasted overnight then sedated with ketamine (8 mg/kg, I.M) and xylazine (1.6 mg/kg, I.M) prior to all procedures. Two monkeys received a topical dose of 40 μg (40 μl) of 81-5 OU (both eyes) and underwent vitreocentesis at ˜1 hr (Group 1) after dosing. […]
Samples were analyzed by mass spectrometry and concentrations calculated using a standard curve that plotted intensity vs known concentration. […]

[2] = Peptide bioavailability in mouse vitreous after 5 μg eye drop (MALDI TOF); assay type: in vivo, C57BL/6 mice; details: mouse, in vivo
Description: Before the longitudinal efficacy studies were carried out in vivo, the bioavailability of the five analogs was examined in comparison to the parent compound P78 and its active 29-mer derivative, SpxA1.
Bioavailability of each peptide was determined in vitreous samples obtained at various time points after eye drops were given. Vitreous samples were harvested from enucleated eyes and immediately analyzed by mass spectrometry. Spectral intensities were compared to spectra of known concentrations of each analog to calculate amounts of peptides reaching the vitreous. The eye drops administered to normal mouse eyes contained 5 μg of the test compound. Bioavailability was studied at three time points: 1, 4, 6 hr using four animals/time point (n=8 eyes). The vitreous was rapidly dissected from each group after the drops were given and immediately analyzed by MALDI TOF.

transcription factors = assay: Procarta multiplex transcription factor DNA binding activity; assay type: cell-based; details: 50 nM peptides, 48 hr, human RPE cells
Description: Activation of transcription factors by P78, spx or 81-5 was measured in human RPE cells. The Affymetrix Procarta Multiplex Transcription factor panel (Affymetrix, Inc. Santa Clara, Calif.) was used to obtain quantitative measurement of DNA binding activity of 44 transcription factors. Cells were seeded at 1×10^5 cells/ml in 6 well plates. Cells were treated with 50 nM peptides in 2% FBS medium for 48 hr, peptides were supplied twice after 24 hr. Cells were harvested using Buffer A working reagent (250 μl well)(1 ml Buffer A: 10 μl DTT, 10 μl protease inhibitor, 10 μl phosphatase inhibitor I, 10 μl phosphatase inhibitor II) and centrifuged at 14,000×g for 3 min at 4° C. Supernatant containing cytoplasmic proteins was collected and protein concentration estimated using the BioRad DC protein assay. To the nuclear pellets, 30 μl/well buffer B (1 ml Buffer B: 10 μl DTT, 10 μl protease inhibitor, 10 μl phosphatase inhibitor I) was added and the samples incubated for 2 hours at 200 rpm. Supernatant containing nuclear proteins was collected by centrifugation at 14,000×g for 5 min at 4° C. and protein concentration measured using Bio-Rad DC protein assay. […] The beads were washed again, resuspended with reading buffer, and incubated for 5 min at room temperature. DNA binding activity of the transcription factors was measured using the Bio-Plex 200 system (bio-Rad) and the xMAP technology.

## SALSLGAAERTESIIHR [Peptide 81-13, SALSLGAAERTESIIHR]
[1]
  peptide concentration in the vitreous, 1 versus 2 hr: not significantly different between the 1 and 2 hr treatment
[2]
  bioavailability profile in rodents: comparable bioavailability profiles with 81-5

B1: Pigment epithelium derived factor (protein)
chain: QNVPSSSEGSPVPDSTGEPVEEEDPFFKVPVNKLAAAVSNFGYDLYRLRSSASPTGNVLLSPLSVATALSALSLGAEHRTESVIHRALYYDLITNPDIHSTYKELLASVTAPEKNLKSASRIVFERKLRVKSSFVAPLEKSYGTRPRILTGNPRVDLQEINNWVQAQMKGKIARSTREMPSALSILLLGVAYFKGQWVTKFDSRKTTLQDFHLDEDRTVRVPMMSDPKAILRYGLDSDLNCKIAQLPLTGSMSIIFFLPLTVTQNLTMIEESLTSEFIHDIDRELKTIQAVLTVPKLKLSFEGELTKSLQDMKLQSLFESPDFSKITGKPVKLTQVEHRAAFEWNEEGAGSSPSPGLQPVRLTFPLDYHLNQPFLFVLRDTDTGALLFIGRILDPSST
Transcription factors
  regulation of transcription factors: regulates transcription factors
